Source: patent US20220144809A1, “COMPOUNDS AND METHODS FOR THE TARGETED DEGRADATION OF ANDROGEN RECEPTOR AND ASSOCIATED METHODS OF USE” (Arvinas Operations, Inc., priority 2020, published 2022)

test system: Androgen Receptor (AR); experiment: Androgen Receptor ELISA assay (AR degradation in LNCaP and/or VCaP cells); format: cell-based; details: degradation of AR, 5 hours incubation, R1881 in media
Procedure: Assay for Testing AR Degradation Driven by Compounds of the Present Disclosure.
Androgen Receptor ELISA Assay. Compounds were evaluated in the following assay in LNCaP and/or VCaP cells utilizing similar protocols. The protocols used with VCaP cells are described below. The androgen receptor ELISA assay was performed using PathScan AR Sandwich ELISA (Cell Signaling Catalog#12850) according to the following assay steps.
VCaP cells were seeded at 40,000 cells/well at a volume of 100 μL/well in VCaP assay medium [Phenol red free RPMI (Gibco Cat#11835-030); 5% Charcoal Stripped (Dextran treated) FBS (Omega Scientific, Cat#FB-04); 1% penstrep (Life Technologies, Gibco Cat#: 10378-016)] in Corning 3904 plates. The cells were grown for a minimum of 3 days.
First, cells were dosed with compounds diluted in […]—in a polypropylene plate avoiding the use of outer columns according to the following protocol: (1)(i) 1000× stock plate in DMSO was made; (ii) 20 mM stock diluted 1/6.7 with DMSO (5 μL+28.3 μL DMSO)=3 mM into row H; (iii) serial dilutions in ½ log doses (10 μL of bifunctional compound+20 μL DMSO) was performed from row H towards row B with row A being reserved for DMSO; (iv) 7 doses total (final concentration in this 1000× plate will be 3 mM, 1 mM, 333 μM, 111 μM, etc). (2)(i) A 10× stock plate in media was made; (ii) 2.5 μL of the 1000× stock was trasnferred to a new 10× stock plate (use 12 channel pipet, start at A (DMSO control) work thru H. When 247.5 μL of media was added to this plate, it served as a 10× stock; (iii) made media+1 nM R1881 for making 10× stock plate; (iv) added 247.5 μL of media with 1 nM R1881 to each well of the 10× stock plate, mix.
Then 22 μL of 10× stock was added to cells and incubated for 5 hours. 1× Cell Signaling Cell lysis buffer was made (Catalogue #9803; comes with the kit) to have […], and was kept on ice. Media was aspirated, and 100 μL 1× cell lysis buffer/well was added. The cells were placed on a shaker located in a cold room for 10 minutes and shaken at speed 7. The lysate mixture was mix and 20 μL transferred to 100 μl of Diluent in ELISA plate (0.15 μg/ml-0.075 μg/ml). The lysate-diluent mixture was store at 4° C. overnight on a shaker located in a cold room at speed 5 (gentle swirl).
The lysate-diluent mixture was shaken for 30 minutes at 37° C. The mouse AR antibody, anti-mouse antibody, TMB, and STOP solution were allowed to come to room temperature. The 1×ELISA buffer included in kit was made and loaded in reservoir. Media from the plate was discarded, the ELISA plate was tapped hard on paper towel, and washed 4×200 μl ELISA wash buffer using a plate washer for the first three washes and an eight channel aspirator for the fourth wash to more thoroughly aspirate the solution.
Next, 100 μL/well of mouse AR detection Ab was added; the plate was covered and shaken at 37° C. for 1 hour; media was discarded from the plates, the plates tapped on a paper towel and washed four times with 200 μL ELISA wash buffer with a plate washer for the first three washes and an eight channel aspirator for the fourth wash; 100 μL/well of anti-mouse—HRP conjugated Ab (comes with the kit) was added; the plates wascover and shaken at 37° C. for 30 minutes; the TMB reagent was allowed to come to room temperature; the media from the plate was discarded, the plates tapped on paper towel, and washed four times with 200 μL ELISA wash buffer with a plate washer for the first three washes and an eight channel aspirator for the fourth wash; plates were tapped on paper towl; 100 μL TMB was added to each well and the plate shaken for 2 minutes—while watching color. STOP solution (100 μL) was added when light blue color developed. The plates were shake and read at 450 nm.
Data was analyzed and plotted using GraphPad Prism software. Exemplary compounds of Table 1 were assayed and the data shown below in Table 2. […]

| SMILES | DC50 [nM] | Dmax Code |
| --- | --- | --- |
| CC(C)N(C[C@H]1C[C@H](Oc2ccc(N3C(=S)N(c4cnc(C#N)c(C(F)(F)F)c4)C(=O)C34CCC4)cn2)C1)[C@H]1C[C@H](Oc2ccc3c(c2)C(=O)N(C2CCC(=O)NC2=O)C3=O)C1 (stereo partly drawn) [Compound 8, 5-(5-(6-((1R,3r)-3-((((1r,3R)-3-((2-(2,6-dioxopiperidin-3-yl)-1,3-dioxoisoindolin-5-yl)oxy)cyclobutyl)(isopropyl)amino)methyl)cyclobutoxy)pyridin-3-yl)-8-oxo-6-thioxo-5,7-diazaspiro[3.4]octan-7-yl)-3-(trifluoromethyl)picolinonitrile] | 1 to 10 | C (C<50) |
| N#Cc1ccc(N2C(=O)C3(CCC3)N(c3ccc(N4CCC(CN5CCN(c6ccc7c(c6)C(=O)N(C6CCC(=O)NC6=O)C7=O)CC5)CC4)cc3)C2=S)cc1Cl (centres unmarked) [Compound 9, 2-chloro-4-(5-(4-(4-((4-(2-(2,6-dioxopiperidin-3-yl)-1,3-dioxoisoindolin-5-yl)piperazin-1-yl)methyl)piperidin-1-yl)phenyl)-8-oxo-6-thioxo-5,7-diazaspiro[3.4]octan-7-yl)benzonitrile] | 1 to 10 | A (A≥70) |
| CC(C)N(CC1CCN(c2ccc(N3C(=S)N(c4cnc(C#N)c(C(F)(F)F)c4)C(=O)C34CCC4)cn2)CC1)[C@H]1C[C@H](Oc2ccc3c(c2)C(=O)N(C2CCC(=O)NC2=O)C3=O)C1 (some centres unmarked) [Compound 13, 5-(5-(6-(4-((((1r,3r)-3-((2-(2,6-dioxopiperidin-3-yl)-1,3-dioxoisoindolin-5-yl)oxy)cyclobutyl)(isopropyl)amino)methyl)piperidin-1-yl)pyridin-3-yl)-8-oxo-6-thioxo-5,7-diazaspiro[3.4]octan-7-yl)-3-(trifluoromethyl)picolinonitrile] | 1 to 10 | C (C<50) |
| CC1(C)C(=O)N(c2ccc(C#N)c(C(F)(F)F)c2)C(=S)N1Cc1ccc(OCCN2CCC(CN3CCN(c4ccc5c(c4)C(=O)N(C4CCC(=O)NC4=O)C5=O)CC3)CC2)nc1 (centres unmarked) [Compound 14, 4-(3-((6-(2-(4-((4-(2-(2,6-dioxopiperidin-3-yl)-1,3-dioxoisoindolin-5-yl)piperazin-1-yl)methyl)piperidin-1-yl)ethoxy)pyridin-3-yl)methyl)-4,4-dimethyl-5-oxo-2-thioxoimidazolidin-1-yl)-2-(trifluoromethyl)benzonitrile] | 1 to 10 | B (50≤B<70) |

More lines, main results first:

| DC50 [nM] | SMILES | Dmax Code |
| --- | --- | --- |
| 1 to 10 | N#Cc1ncc(N2C(=O)C3(CCC3)N(c3ccc(OC4CCN(CC5CCN(c6ccc7c(c6)C(=O)N(C6CCC(=O)NC6=O)C7=O)CC5)CC4)c(F)c3)C2=S)cc1Cl (centres unmarked) [Compound 10, 3-chloro-5-(5-(4-((1-((1-(2-(2,6-dioxopiperidin-3-yl)-1,3-dioxoisoindolin-5-yl)piperidin-4-yl)methyl)piperidin-4-yl)oxy)-3-fluorophenyl)-8-oxo-6-thioxo-5,7-diazaspiro[3.4]octan-7-yl)picolinonitrile] | A (A≥70) |
| 1 to 10 | N#Cc1ncc(N2C(=O)C3(CCC3)N(c3ccc(C4CCN(CC5CCN(c6ccc7c(c6)C(=O)N(C6CCC(=O)NC6=O)C7)CC5)CC4)cc3)C2=S)cc1Cl (centres unmarked) [Compound 11] | C (C<50) |
| 1 to 10 | N#Cc1ncc(N2C(=O)C3(CCC3)N(c3ccc(OC4CCN(CC5CCN(c6ccc7c(c6)C(=O)N(C6CCC(=O)NC6=O)C7=O)CC5)CC4)nc3)C2=S)cc1C(F)(F)F (centres unmarked) [Compound 12, 5-(5-(6-((1-((1-(2-(2,6-dioxopiperidin-3-yl)-1,3-dioxoisoindolin-5-yl)piperidin-4-yl)methyl)piperidin-4-yl)oxy)pyridin-3-yl)-8-oxo-6-thioxo-5,7-diazaspiro[3.4]octan-7-yl)-3-(trifluoromethyl)picolinonitrile] | B (50≤B<70) |
